Assay results published in publication PMC8431557, “Multilevel Approach for the Treatment of Giardiasis by Targeting Arginine Deiminase” (International Journal of Molecular Sciences, 2021).

Columns and labels:
[1] = biological target: T1, GlADI (giardial arginine deiminase) (Giardia duodenalis, UniProt E2RU36); test: residual activity after […] h preincubation, GlDH-coupled NADH assay; format: biochemical; parameters: gene GL50803_00112103; recombinant in pET28a(+), E. coli Rosetta 2 (DE3) pLysS; N-terminal His6 tag not cleaved; 580 residues; homodimer; 16 Cys per monomer; details: covalent (Cys modification); 2 h, pH 8.0, 25 °C
T1 sequence (E2RU36 entry or part of it): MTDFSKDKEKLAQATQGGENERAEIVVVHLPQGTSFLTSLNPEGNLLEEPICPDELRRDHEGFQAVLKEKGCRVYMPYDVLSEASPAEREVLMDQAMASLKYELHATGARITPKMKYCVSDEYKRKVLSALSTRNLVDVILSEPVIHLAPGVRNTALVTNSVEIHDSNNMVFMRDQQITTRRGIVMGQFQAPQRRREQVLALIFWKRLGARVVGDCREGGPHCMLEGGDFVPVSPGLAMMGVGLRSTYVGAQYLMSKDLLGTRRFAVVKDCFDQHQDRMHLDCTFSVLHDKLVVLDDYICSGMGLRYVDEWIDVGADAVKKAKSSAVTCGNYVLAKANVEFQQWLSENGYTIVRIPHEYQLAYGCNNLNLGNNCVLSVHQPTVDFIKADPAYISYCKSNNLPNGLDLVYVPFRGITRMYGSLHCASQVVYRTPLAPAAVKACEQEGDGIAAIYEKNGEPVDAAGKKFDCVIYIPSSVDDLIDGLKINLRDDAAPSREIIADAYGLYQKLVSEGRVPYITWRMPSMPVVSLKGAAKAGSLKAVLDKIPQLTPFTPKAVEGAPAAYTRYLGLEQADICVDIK

[2] = biological target: T1, GlADI (giardial arginine deiminase); parameters: gene GL50803_00112103; details: 8 mM L-arginine, pH 8.0, 25 °C
[3] = biological target: T1, GlADI (giardial arginine deiminase); test: residual activity after timed preincubation, GlDH-coupled NADH assay; slope of k1 vs concentration; format: biochemical; parameters: gene GL50803_00112103; recombinant in pET28a(+), E. coli Rosetta 2 (DE3) pLysS; N-terminal His6 tag not cleaved; 580 residues; homodimer; 16 Cys per monomer; details: covalent (Cys modification), second-order inactivation rate constant, pH 8.0, 25 °C

## CC(=C(CCOC(=O)C(C)C)SSC(CCOC(=O)C(C)C)=C(C)N(C=O)Cc1cnc(C)nc1N)N(C=O)Cc1cnc(C)nc1N (stereo in doubt) [sulbutiamine]
[1]
  residual activity (%): all of these drugs were able to inhibit recombinant GlADI in vitro in a dose-dependent manner

## O=C(O)c1cc(SSc2ccc([N+](=O)[O-])c(C(=O)O)c2)ccc1[N+](=O)[O-] [DTNB, dithio-bis-nitrobenzoic acid]
[1]
  residual activity (%): caused inactivation of the enzyme in a dose-dependent manner (Figure 1E,F)

## N=C(N)NCCC[C@H](N)C(=O)O [L-arginine]
[2]
  GlDH-coupled NADH oxidation at 340 nm: monitoring the conversion of L-arginine to citrulline

## CSS(C)(=O)=O [MMTS, s-methyl methanethiosulfonate]
[3]; 2.5-85 µM
  k2: 15.68 ± 0.9 M⁻¹ s⁻¹

## COc1ccc2[nH]c([S+]([O-])Cc3ncc(C)c(OC)c3C)nc2c1 (stereo not drawn) [omeprazole]
[1]
  residual activity (%): all of these drugs were able to inhibit recombinant GlADI in vitro in a dose-dependent manner

## COCCCOc1ccnc(C[S+]([O-])c2nc3ccccc3[nH]2)c1C (stereo not drawn) [rabeprazole]
[3]; 5-110 µM
  k2: 6.72 ± 0.2 M⁻¹ s⁻¹
